What was measured:
rat SVCT1 = molecular target: T1, rat SVCT1 (Rattus norvegicus, UniProt Q9WTW7); experiment: Two-microelectrode voltage-clamp of Xenopus oocytes expressing rat SVCT1; assay type: cell-based
T1 construct: expressed in transfected cells; host or cells: Xenopus laevis oocytes injected with cRNA
Procedure: Rat SVCT1 and SVCT2 clones were obtained by isolating SVCT1 cDNA from rat kidney by expression cloning as described in Hediger et al., Methods Enzymol. 296:17-52 (1998). The SVCT2 cDNA was subsequently isolated by PCR-based homology screening of a rat brain cDNA library. […] Radiotracer and voltage-clamp experiments were performed (at 22° C.) in Xenopus oocytes two to seven days after injection with ˜25 ng of SVCT1 or SVCT2 cRNA synthesized in vitro. Radiotracer uptake was determined by incubating 6-10 oocytes for 30 or 60 min in standard 100 mM Na^+ or Na^+-free media with 10-600 μM L-[^14C]ascorbic acid.
Functional characterization of SVCT1 and SVCT2 in Xenopus oocytes—Oocytes were isolated from Xenopus laevis (under 2-aminoethylbenzoate anaesthesia), treated with collagenase A and stored at 18° C. in modified Barths' medium. Oocytes were injected with ≈25 ng of SVCT1 or SVCT2 cRNA synthesized in vitro, or water only (control), and incubated 2-7 days before radiotracer or voltage-clamp experiments were performed. Standard Na^+ uptake medium comprised 100 mM NaCl, 2 mM KCl, 1 mM CaCl2, 1 mM MgCl2, 10 mM HEPES (pH 7.5 with Tris base). For Na^+-free or low-Na^+ media, NaCl was replaced by equimolar choline chloride; likewise, Cl^− was replaced by gluconate for Cl^−-free medium. For pH-sensitivity experiments, Na^+ media were buffered at pH 5.5-8.0 using 0-5 mM MES, 0-5 mM HEPES and 0-5 mM Tris base. L-Ascorbic acid-containing solutions were freshly-prepared (without dithiothreitol) and used immediately.
Radiotracer uptake was determined by incubating 6-10 oocytes for 30 or 60 min in standard Na^+ or Na^+-free media (at 22° C.) with 10-600 μM L-[1-^14C]ascorbic acid (final specific activity 0.3 GBq/mmol). Oocytes were solubilized with 10% SDS and [^14C]-content was measured by liquid scintillation counting. A two-microelectrode voltage-clamp was used to measure currents in control oocytes and oocytes injected with rat SVCT1 or rat SVCT2 cRNA. Microelectrodes (resistance 0.5-5 MΩ) were filled with 3 M KCl. Oocytes were superfused at 22° C. in standard Na^+ medium and clamped at a holding potential (Vh) of −50 mV. For continuous current monitoring at Vh=−50 mV, the current was low-pass filtered at 20 Hz (sampling at 1 Hz). Additionally, step-changes in membrane potential (Vm) were applied (from +50 mV to −150 mV in 20-mV increments), each for a duration of 100 ms, before and after the addition of substrate; current was low-pass filtered at 500 Hz and digitized at 5 kHz. Test solutions were always washed out with substrate-free medium (100 mM choline chloride) at pH 7.5 for several minutes. Steady-state data (obtained by averaging the points over the final 16.7 ms at each Vm step when step-changes were applied) were fitted to equation (1) below, for which I is the evoked current (i.e., the difference in steady-state current measured in the presence and absence of substrate), Imax the derived current maximum, S the concentration of substrate S (Na^+ or L-ascorbic acid),
[formula] the substrate concentration at which current was half-maximal, and nH the Hill coefficient for S. (For radiotracer experiments, I was replaced with velocity V and Imax replaced with the derived maximal velocity, Vmax.)

rat SVCT2 = molecular target: T2, rat SVCT2 (Rattus norvegicus, UniProt Q9WTW8); experiment: Two-microelectrode voltage-clamp of Xenopus oocytes expressing rat SVCT2; assay type: cell-based; conditions: oocytes expressing SVCT2, in the presence of Na^+
T2 construct: expressed in transfected cells; host or cells: Xenopus laevis oocytes injected with cRNA (vector pTLN2)
Procedure: Rat SVCT1 and SVCT2 clones were obtained by isolating SVCT1 cDNA from rat kidney by expression cloning as described in Hediger et al., Methods Enzymol. 296:17-52 (1998). The SVCT2 cDNA was subsequently isolated by PCR-based homology screening of a rat brain cDNA library. A 2.5-kb rabbit cDNA with 96% identity to residues 96-505 of the rat SVCT2 was obtained by RT-PCR. Radiotracer and voltage-clamp experiments were performed (at 22° C.) in Xenopus oocytes two to seven days after injection with ˜25 ng of SVCT1 or SVCT2 cRNA synthesized in vitro. Radiotracer uptake was determined by incubating 6-10 oocytes for 30 or 60 min in standard 100 mM Na^+ or Na^+-free media with 10-600 μM L-[^14C]ascorbic acid. […]
Radiotracer uptake was determined by incubating 6-10 oocytes for 30 or 60 min in standard Na^+ or Na^+-free media (at 22° C.) with 10-600 μM L-[1-^14C]ascorbic acid (final specific activity 0.3 GBq/mmol). Oocytes were solubilized with 10% SDS and [^14C]-content was measured by liquid scintillation counting. […] Steady-state data (obtained by averaging the points over the final 16.7 ms at each Vm step when step-changes were applied) were fitted to equation (1) below, for which I is the evoked current (i.e., the difference in steady-state current measured in the presence and absence of substrate), Imax the derived current maximum, S the concentration of substrate S (Na^+ or L-ascorbic acid), […]

T1 sequence (Q9WTW7 whole entry): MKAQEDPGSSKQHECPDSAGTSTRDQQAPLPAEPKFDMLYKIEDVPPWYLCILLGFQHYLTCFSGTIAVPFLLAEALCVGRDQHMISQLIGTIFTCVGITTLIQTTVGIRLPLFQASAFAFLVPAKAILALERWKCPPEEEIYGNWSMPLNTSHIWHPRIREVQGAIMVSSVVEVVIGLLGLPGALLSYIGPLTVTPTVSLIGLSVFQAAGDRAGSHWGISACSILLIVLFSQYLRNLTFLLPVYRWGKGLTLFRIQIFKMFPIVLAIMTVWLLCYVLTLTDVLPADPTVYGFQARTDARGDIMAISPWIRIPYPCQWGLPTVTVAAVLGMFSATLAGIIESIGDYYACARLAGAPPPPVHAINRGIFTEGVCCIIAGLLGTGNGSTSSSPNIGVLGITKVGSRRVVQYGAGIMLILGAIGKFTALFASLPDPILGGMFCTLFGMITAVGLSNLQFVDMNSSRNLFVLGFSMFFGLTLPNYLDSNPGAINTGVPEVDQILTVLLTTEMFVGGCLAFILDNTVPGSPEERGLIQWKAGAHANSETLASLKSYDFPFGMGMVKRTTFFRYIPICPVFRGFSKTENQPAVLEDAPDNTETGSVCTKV
T2 sequence (Q9WTW8 whole entry): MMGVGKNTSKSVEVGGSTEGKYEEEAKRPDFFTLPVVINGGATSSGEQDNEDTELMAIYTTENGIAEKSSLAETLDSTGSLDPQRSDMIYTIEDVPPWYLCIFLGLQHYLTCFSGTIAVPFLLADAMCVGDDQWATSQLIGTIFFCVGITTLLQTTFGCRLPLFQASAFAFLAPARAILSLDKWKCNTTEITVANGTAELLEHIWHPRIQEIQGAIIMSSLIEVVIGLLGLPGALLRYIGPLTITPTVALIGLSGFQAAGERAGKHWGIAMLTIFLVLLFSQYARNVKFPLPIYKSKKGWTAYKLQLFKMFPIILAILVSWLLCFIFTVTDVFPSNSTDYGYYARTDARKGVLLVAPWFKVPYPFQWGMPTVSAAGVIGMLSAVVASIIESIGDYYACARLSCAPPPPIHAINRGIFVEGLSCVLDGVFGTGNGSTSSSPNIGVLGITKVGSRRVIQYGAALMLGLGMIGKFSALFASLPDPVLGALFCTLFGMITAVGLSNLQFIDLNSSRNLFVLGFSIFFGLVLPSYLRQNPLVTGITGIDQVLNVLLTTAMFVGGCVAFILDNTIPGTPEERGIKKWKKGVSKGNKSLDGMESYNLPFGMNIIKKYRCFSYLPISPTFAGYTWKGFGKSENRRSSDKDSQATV

Structure (SMILES): O=C1O[C@H]([C@@H](O)CO)C(O)=C1O [L-ascorbic acid]
- Hill coefficient (nH) (rat SVCT1; evoked currents, −50 mV): ≈ 1
- reduction of evoked currents at pH 5.5 versus pH 7.5 (rat SVCT1; extracellular pH 5.5 compared with pH 7.5): 50%
- L-ascorbic acid-evoked reversible inward currents (rat SVCT1; oocytes expressing SVCT1, in the presence of Na^+): up to −100 nA
- K0.5 (L-ascorbic acid concentration at which currents were half-maximal) (rat SVCT1; −50 mV, 100 mM Na^+): 30 µM
- L-ascorbic acid-evoked reversible inward currents (rat SVCT2): up to −10 nA

Reference: patent US7371536B2, “Methods for transporting vitamin C” (priority 1999, dated 2008)
